In paper PMC11217935, “Facile Halogenation of Antimicrobial Peptides As Demonstrated by Producing Bromotryptophan-Labeled Nisin Variants with Enhanced Antimicrobial Activity” (Journal of Natural Products, 2024):
In brackets after ≈: the same amount, converted by molar mass.

Columns and labels:
[1] = test system: Lactococcus lactis MG1363; format: cell-based; details: for fold decrease in activity: L. lactis (MG1363), from MIC values, I1W compared with nisin, analogue-labelled variants by the numbers compared with Trp variant
Protocol: (§1) MIC values were determined using broth microdilution according to standard guidelines.[42] The inoculum was adjusted to approximately 5 × 10^5 CFU/mL, and the MIC was defined as the lowest concentration of antimicrobial compound with no visible growth after overnight incubation at 37 °C (or at 30 °C for L. lactis strain).

[2] = Spot-on-lawn assay to test lipid II binding; format: cell-based, Bacillus cereus; details: B. cereus CH-85 lawn on LB agar; lipid II (600 μM, 2 μL per Figure 6; 0.8 mol/L, 2 μL per method) spotted at edge of halo; overnight 37 °C; preliminary results
Protocol: A 0.1% (v/v) inoculum of B. cereus CH-85 from an overnight culture was added to 1.5% (w/v) LB agar at 45 °C, and 10 mL of the mixture was poured onto a plate. The binding of the peptide to lipid II was evaluated by spotting purified lipid II ([…], 2 μL)[38],[41] at the edge of the 0.2 mg antibiotic inhibition halo. Specifically, 5 μL of the antibiotic was loaded onto the agar plate, and after drying, the lipid II solution was spotted at the edge of the inhibition halo. The plate was then incubated overnight at 37 °C.

[3] = test system: B. cereus CH-85; assay: Time-kill assay; format: cell-based, Bacillus cereus; details: within 3 h, 5 × 10^5 cells per mL, 37 °C, triplicate
Protocol: The antimicrobial activity of nisin and its brominated variants was evaluated against B. cereus CH-85 using a previously described procedure.[38],[41] Briefly, an overnight culture of B. cereus was diluted 50-fold in LB medium and grown at 37 °C with aeration until reaching an OD600 of 0.5, after which the cell concentration was adjusted to 5 × 10^5 cells per mL. Bacteria were then exposed to different concentrations of nisin or brominated nisin variant in culture tubes at 37 °C and 180 rpm, with untreated bacteria serving as a negative control. At desired time points, 50 μL aliquots were taken, and 10-fold serial dilutions were plated on LB agar plates. After overnight incubation at 37 °C, colonies were counted, and colony-forming units (CFU) per milliliter were calculated. Each experiment was performed in triplicate.

[4] = test system: Staphylococcus aureus LMG15975 (MRSA); assay: MIC, broth microdilution; format: cell-based; details: one of two tested pathogens (S. aureus LMG15975 MRSA), WHO priority pathogen; compared with wild-type nisin
Protocol: as §1

[5] = test system: Bacillus cereus CH-85; assay: MIC, broth microdilution; format: cell-based; details: one of two tested pathogens (B. cereus CH-85); compared with wild-type nisin
Protocol: as §1

[6] = test system: Staphylococcus aureus LMG10147; assay: MIC, broth microdilution; format: cell-based; details: S. aureus (text: 'S. aureus' / 'one S. aureus'; by Table 2 LMG10147); from MIC values
Protocol: as §1

[7] = test system: Enterococcus faecium LMG16003 (VRE); assay: MIC, broth microdilution; format: cell-based; details: E. faecium; from MIC values
Protocol: as §1

[8] = test system: Enterococcus faecalis LMG16216 (VRE); assay: MIC, broth microdilution; format: cell-based; details: E. faecalis; from MIC values
Protocol: as §1

Row | Compound | MIC [1] [µg/mL] | effect of externally added purified lipid II on antimicrobial activity (inhibition halo) [2] | fold decrease in activity [1] [fold] | fold decrease in activity [6] [fold] | also measured
1 | C=C(NC(=O)[C@@H](NC(=O)[C@H](Cc1c[nH]cn1)NC(=O)[C@@H](NC(=O)[C@H](CO)NC(=O)[C@@H]1CS[C@@H](C)[C@H]2NC(=O)[C@H](C)NC(=O)[C@H](NC(=O)[C@H](CCCCN)NC(=O)[C@H](CCSC)NC(=O)[C@H](CC(N)=O)NC(=O)[C@@H]3CS[C@@H](C)[C@@H](NC(=O)[C@H](CCCCN)NC(=O)[C@@H]4CS[C@@H](C)[C@@H](NC(=O)[C@@H]5CSC[C@@H](NC(=O)/C(=C/C)NC(=O)[C@@H](N)Cc6c[nH]c7ccc(Br)cc67)C(=O)N[C@@H]([C@@H](C)CC)C(=O)NC(=C)C(=O)N[C@@H](CC(C)C)C(=O)N5)C(=O)N5CCC[C@H]5C(=O)NCC(=O)N4)C(=O)NCC(=O)N[C@@H](C)C(=O)N[C@@H](CC(C)C)C(=O)N[C@@H](CCSC)C(=O)NCC(=O)N3)[C@H](C)SC[C@H](NC2=O)C(=O)N[C@@H](Cc2c[nH]cn2)C(=O)N1)[C@@H](C)CC)C(C)C)C(=O)N[C@@H](CCCCN)C(=O)O [nisin I1W 5BrTrp] | 0.04 (≈ 0.0114 µM) | decreased the antimicrobial activity |  |  | killing activity (viability of exponential culture) ([3]; B. cereus CH-85, 2.5 μg/mL (lowest concentration tested)): only slight killing; killing activity (viability of exponential culture) ([3]; B. cereus CH-85, 15 μg/mL): slower bactericidal activity than did nisin; fold improvement in antimicrobial activity [4]: 2 fold; fold improvement in antimicrobial activity [5]: 2 fold
2 | C=C(NC(=O)[C@@H](NC(=O)[C@H](Cc1c[nH]cn1)NC(=O)[C@@H](NC(=O)[C@H](CO)NC(=O)[C@@H]1CS[C@@H](C)[C@H]2NC(=O)[C@H](C)NC(=O)[C@H](NC(=O)[C@H](CCCCN)NC(=O)[C@H](CCSC)NC(=O)[C@H](CC(N)=O)NC(=O)[C@@H]3CS[C@@H](C)[C@@H](NC(=O)[C@H](CCCCN)NC(=O)[C@@H]4CS[C@@H](C)[C@@H](NC(=O)[C@@H]5CSC[C@@H](NC(=O)/C(=C/C)NC(=O)[C@@H](N)Cc6c[nH]c7ccc(O)cc67)C(=O)N[C@@H]([C@@H](C)CC)C(=O)NC(=C)C(=O)N[C@@H](CC(C)C)C(=O)N5)C(=O)N5CCC[C@H]5C(=O)NCC(=O)N4)C(=O)NCC(=O)N[C@@H](C)C(=O)N[C@@H](CC(C)C)C(=O)N[C@@H](CCSC)C(=O)NCC(=O)N3)[C@H](C)SC[C@H](NC2=O)C(=O)N[C@@H](Cc2c[nH]cn2)C(=O)N1)[C@@H](C)CC)C(C)C)C(=O)N[C@@H](CCCCN)C(=O)O [nisin I1W 5OHTrp] | 0.08 (≈ 0.0232 µM) |  | 2 | 2 | fold decrease in activity [7]: 2 fold
3 | C=C(NC(=O)[C@@H](NC(=O)[C@H](Cc1c[nH]cn1)NC(=O)[C@@H](NC(=O)[C@H](CO)NC(=O)[C@@H]1CS[C@@H](C)[C@H]2NC(=O)[C@H](C)NC(=O)[C@H](NC(=O)[C@H](CCCCN)NC(=O)[C@H](CCSC)NC(=O)[C@H](CC(N)=O)NC(=O)[C@@H]3CS[C@@H](C)[C@@H](NC(=O)[C@H](CCCCN)NC(=O)[C@@H]4CS[C@@H](C)[C@@H](NC(=O)[C@@H]5CSC[C@@H](NC(=O)/C(=C/C)NC(=O)[C@@H](N)Cc6c[nH]c7cc(Br)ccc67)C(=O)N[C@@H]([C@@H](C)CC)C(=O)NC(=C)C(=O)N[C@@H](CC(C)C)C(=O)N5)C(=O)N5CCC[C@H]5C(=O)NCC(=O)N4)C(=O)NCC(=O)N[C@@H](C)C(=O)N[C@@H](CC(C)C)C(=O)N[C@@H](CCSC)C(=O)NCC(=O)N3)[C@H](C)SC[C@H](NC2=O)C(=O)N[C@@H](Cc2c[nH]cn2)C(=O)N1)[C@@H](C)CC)C(C)C)C(=O)N[C@@H](CCCCN)C(=O)O [nisin I1W 6BrTrp] | 0.08 (≈ 0.0228 µM) |  | 2 | 2 | fold decrease in activity [8]: 2 fold
4 | C=C(NC(=O)[C@@H](NC(=O)[C@H](Cc1c[nH]cn1)NC(=O)[C@@H](NC(=O)[C@H](CO)NC(=O)[C@@H]1CS[C@@H](C)[C@H]2NC(=O)[C@H](C)NC(=O)[C@H](NC(=O)[C@H](CCCCN)NC(=O)[C@H](CCSC)NC(=O)[C@H](CC(N)=O)NC(=O)[C@@H]3CS[C@@H](C)[C@@H](NC(=O)[C@H](CCCCN)NC(=O)[C@@H]4CS[C@@H](C)[C@@H](NC(=O)[C@@H]5CSC[C@@H](NC(=O)/C(=C/C)NC(=O)[C@@H](N)Cc6c[nH]c7ccccc67)C(=O)N[C@@H]([C@@H](C)CC)C(=O)NC(=C)C(=O)N[C@@H](CC(C)C)C(=O)N5)C(=O)N5CCC[C@H]5C(=O)NCC(=O)N4)C(=O)NCC(=O)N[C@@H](C)C(=O)N[C@@H](CC(C)C)C(=O)N[C@@H](CCSC)C(=O)NCC(=O)N3)[C@H](C)SC[C@H](NC2=O)C(=O)N[C@@H](Cc2c[nH]cn2)C(=O)N1)[C@@H](C)CC)C(C)C)C(=O)N[C@@H](CCCCN)C(=O)O [nisin I1W Trp] | 0.04 (≈ 0.0117 µM) |  | 2 |  | 
5 | daptomycin [reference compound] |  | maintained its antimicrobial activity |  |  | 
